# Measurements reported in patent publication US20080096939A1, “Process For Preparation Of Pramipexole By Chiral Chromatography” (priority 2004, published 2008).
# Assays:
# dopamine D-2 = dopamine D-2 (Homo sapiens, UniProt P14416); conditions: compared with the R(+) enantiomer; cited from earlier work
# [1] = acetonitrile:methanol (81:19)
# Description: Racemic pramipexole was subjected to preparative chromatography using Chiralpak® AD as the stationary phase and acetonitrile:methanol (81:19) as the mobile phase.
# Chain of dopamine D-2 (P14416 whole entry): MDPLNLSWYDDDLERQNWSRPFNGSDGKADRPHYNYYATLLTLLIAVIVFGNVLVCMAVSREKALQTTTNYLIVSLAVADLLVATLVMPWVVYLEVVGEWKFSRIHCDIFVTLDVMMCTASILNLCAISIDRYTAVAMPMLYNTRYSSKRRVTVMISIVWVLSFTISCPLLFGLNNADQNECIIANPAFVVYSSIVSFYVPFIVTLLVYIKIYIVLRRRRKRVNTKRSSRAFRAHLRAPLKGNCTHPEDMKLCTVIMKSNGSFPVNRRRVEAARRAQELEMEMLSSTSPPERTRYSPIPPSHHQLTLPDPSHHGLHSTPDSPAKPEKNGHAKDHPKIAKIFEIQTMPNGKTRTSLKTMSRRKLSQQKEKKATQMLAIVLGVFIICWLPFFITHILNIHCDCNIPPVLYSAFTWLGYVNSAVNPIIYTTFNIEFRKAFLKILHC
SMILES,dopaminergic activity of the S(−) enantiomer relative to the corresponding R(+) enantiomer (dopamine D-2),solubility in the mobile phase [1] [mg/mL]
"CCCN[C@H]1CCc2nc(N)sc2C1 [Pramipexole, S(−)-2-amino-6-propylamino-4,5,6,7-tetrahydrobenzothiazole]",twice as high,
"CCCNC1CCc2nc(N)sc2C1 (racemic) [Racemic pramipexole, R,S(±)-2-amino-6-propylamino-4,5,6,7-tetrahydrobenzothiazole]",,> 40
